We go through 18 compounds from ChEMBL document CHEMBL4706744, “Discovery of Selective Transforming Growth Factor β Type II Receptor Inhibitors as Antifibrosis Agents” (ACS Med Chem Lett, 2021).

For orientation: bioavailability means dose-corrected exposure relative to a reference, in per cent. The half-life is the time in which the quantity being followed falls by half. By clearance is commonly meant the volume of plasma or blood freed of the substance per unit of time. Usually MRT stands for the average time that molecules of a dose stay in the body. For orientation: AUC means the area under the concentration-time curve, a measure of exposure.

Data set [1] is described as follows: Metabolic stability in human liver microsomes assessed as compound remaining at 1 uM incubated for 60 mins. The following applies: read-out: Stabilty. The class given is ADME, Microsome. On the technique in general: Liver microsomes are vesicles of endoplasmic reticulum, rich in cytochrome P450 enzymes.
A short description of data set [2]: Metabolic stability in rat liver microsomes assessed as compound remaining at 1 uM incubated for 60 mins. The format is ADME, Microsome. The following applies: read-out: Stabilty.
The nature of data set [3]: Apparent permeability across apical to basolateral side in human Caco2 cells incubated for 2 hrs by LC/MS/MS analysis. The format is ADME, cell-based. The following applies: Caco-2, read-out: permeability. For orientation: Passage across Caco-2 layers is used to estimate intestinal permeability.
The nature of data set [4]: Oral bioavailability in mouse at 1 mg/kg by LC/MS analysis. The format is ADME, organism-based. The following applies: in vivo.
The nature of data set [5]: Half life in mouse at 1 mg/kg, po by LC/MS analysis. The format is ADME, organism-based. The following applies: in vivo.
Data set [6] is described as follows: Total clearance in Sprague-Dawley rat at 0.3 mg/kg, iv measured up to 24 hrs by LC-MS/MS analysis. The following applies: in vivo. The class given is ADME, organism-based.
Data set [7] is described as follows: Volume of distribution at steady state in Sprague-Dawley rat at 0.3 mg/kg, iv measured up to 24 hrs by LC-MS/MS analysis. The format is ADME, organism-based. The following applies: in vivo, read-out: Vdss.
Data set [8] can be described thus: Mean residence time in Sprague-Dawley rat at 0.3 mg/kg, iv measured up to 24 hrs by LC-MS/MS analysis. The class given is ADME, organism-based. The following applies: in vivo.
Data set [9] in a line: AUC in mouse at 1 mg/kg, po by LC/MS analysis. The class given is ADME, organism-based. Further details: dose 1 mg/kg. The following applies: in vivo.
A short description of data set [10]: Solubility of the compound measured after 4 hrs by LC analysis. The format is physicochemical.

Structures are written as SMILES.

As for `COc1cc(-c2cnn3cc(OC)c(C)nc23)ccn1`, the remaining at 1 h, 1 µM in [1] is 44%; in data set [2] it was 13%.
As for `COc1cc(-c2cnn3cc(OC)c(C4CCOC4)nc23)ccn1` (centres undefined), the results for the remaining at 1 h, 1 µM in data set [1] and in [2] were 29% and 34%, respectively.
Regarding `COc1cn2ncc(-c3ccnc(OC4CC4)c3)c2nc1-c1cnn(C)c1`, the remaining at 1 h, 1 µM in [1] was 47%; in [2] it was 32%.
Turning to `COc1cc(-c2cnn3cc(OC)c(-c4cnn(C)c4)nc23)ccn1`, the results for the remaining at 1 h, 1 µM in [1] and in [2] were 43% and 56%, respectively.
With `CNc1nc2c(-c3ccnc(OC)c3)cnn2cc1OC`, the remaining at 1 h, 1 µM in data set [1] came to 63%; in [2], 74%.
In the case of `COc1cc(-c2cnn3cc(OC)c(C(C)C)nc23)ccn1`, the remaining at 1 h, 1 µM in [1] is 40%; in data set [2], 14%.
For `COc1cc(-c2cnn3cc(OC)c(C(C)(C)O)nc23)ccn1`, the remaining at 1 h, 1 µM is 66% in data set [1] and 92% in data set [2].
On to `Cn1cc(-c2nc3c(-c4ccnc(OC5CC5)c4)cnn3cc2OCCCC(C)(C)O)cn1`, for which the figures for the remaining at 1 h, 1 µM in data set [1] and in [2] were 54% and 64%, respectively.
The like results for `COc1cc(-c2cnn3cc(OC)c(N(C)C)nc23)ccn1` were, in that order, 16% and 3%.
With `Cn1cc(-c2nc3c(-c4ccnc(OC5CC5)c4)cnn3cc2OCCC(C)(C)O)cn1`, in data set [3], the Papp A→B at 2 h turned out to be 1.4 ×10⁻⁶ cm/s. For the same compound, in data set [4], the bioavailability stood at 48%. Also, the half-life in [5] is 4.6 h. In data set [6], the clearance is 8.17 mL/min/kg. Further, the remaining at 1 h, 1 µM was 74% in data set [1] and 84% in data set [2]. Further, the Vd in [7] came to 2.7 L/kg. This compound returned an MRT in data set [8] of 5.5 h. The exposure (AUC) in [9] worked out at 2.3 µM·h. Besides, the solubility entry in data set [10] is recorded as “Soluble”.
For the compound `COc1cn2ncc(-c3ccnc(OC(C)C)c3)c2nc1-c1cnn(C)c1`, the remaining at 1 h, 1 µM in [1] came to 32%; in data set [2] it was 50%.
`COc1cc(-c2cnn3cc(OC)c([C@H]4COC(C)(C)C4)nc23)ccn1`: the remaining at 1 h, 1 µM was 21% in data set [1] and 30% in [2].
On to `COc1cc(-c2cnn3cc(OC)c([C@@H]4COC(C)(C)C4)nc23)ccn1`, for which the remaining at 1 h, 1 µM in data set [1] came to 13%; in data set [2], 30%.
The corresponding values for `COc1cc(-c2cnn3cc(OC)c(-c4cc(C)no4)nc23)ccn1` are 31% and 62%.
The like results for `COc1cn2ncc(-c3ccnc(OC(C)(C)C)c3)c2nc1-c1cnn(C)c1` were, in that order, 35% and 61%.
The like results for `COc1cc(-c2cnn3cc(OC)c(C4CCCC4)nc23)ccn1` were, in that order, 32% and 7%.
In the case of `Cn1cc(-c2nc3c(-c4ccnc(OC5CC5)c4)cnn3cc2OCC(C)(C)O)cn1`, the remaining at 1 h, 1 µM is 53% in [1] and 81% in data set [2].
The like results for `COc1cnc2c(-c3ccnc(OC)c3)cnn2c1` were, in that order, 2% and 10%.
